Source: publication PMC7582725, “Suppression of hTAS2R16 Signaling by Umami Substances” (International Journal of Molecular Sciences, 2020)
Changes are numbered by the printed parent chain. “And” between values parts separate entries of the source, which are not always exact repeats. Identical values can stand only once. Counter-ions that a name gives are not always drawn. Like-named read-outs stand apart in the source and are kept apart here. Where a SMILES comes first, the peptide text is derived from it.

How the values were obtained:
hTAS2R16 [1] = target: T1, hTAS2R16 (Homo sapiens, UniProt Q9NYV7); test: Cellular Ca2+ response, cell-based assay (Calcium-4, FlexStation III) in HEK293T cells co-expressing wild-type hTAS2R16 and G16αgust44; details: for synergistic effect with IMP on suppression of salicin response: 10 mM salicin, graded IMP below or at 10 mM; for mechanism of antagonism at hTAS2R16: from salicin concentration–response curves at graded antagonist concentrations
T1 construct: expressed in transfected cells; host or cells: HEK293T
T1 sequence (Q9NYV7 1-291): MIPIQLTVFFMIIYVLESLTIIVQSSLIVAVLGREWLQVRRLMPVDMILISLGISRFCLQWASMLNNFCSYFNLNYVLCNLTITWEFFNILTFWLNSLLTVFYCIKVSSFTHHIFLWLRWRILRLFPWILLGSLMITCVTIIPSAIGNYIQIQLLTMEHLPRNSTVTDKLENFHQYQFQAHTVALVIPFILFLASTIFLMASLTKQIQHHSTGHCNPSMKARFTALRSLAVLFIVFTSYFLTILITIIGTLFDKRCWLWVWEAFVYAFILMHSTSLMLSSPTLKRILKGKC
Description: (§1) HEK293T cells were purchased from American Type Culture Collection (ATCC; Manassas, VA, USA) and cultured as described previously. The plasmids hTAS2R16 and G16αgust44 were constructed as described previously. G16αgust44 and hTAS2R16 were cloned into a cytomegalovirus promoter-based vector and expressed constitutively. Point mutants of N96T and P44T on hTAS2R16 clone and DNA sequencings were performed by Macrogen (Geumcheon-gu, Seoul, Korea). The hTAS2R16 or point mutant expression plasmid was co-transfected with G16αgust44 expression plasmid (4:1) into HEK293T cells using Lipofectamine 2000 (Invitrogen, Carlsbad, CA, USA).
(§2) The umami substances-induced changes in the cytosolic Ca^2+ concentration were measured using a FlexStation III microplate reader (Molecular Devices, Sunnyvale, CA, USA). HEK293T cells transfected with hTAS2R16 were seeded onto 96-well black-wall CellBind surface plates (Corning, NY, USA) for 18–24 h before use. […] The cells were incubated in the dark for 30 min at 37 °C, and then for 15 min at 27 °C in assay buffer consisting of Calcium-4 (FLIPR Calcium 4 Assay Kit, Molecular Devices) and probenecid or the umami compounds. Following treatment, the fluorescence intensity (excitation, 486 nm; emission, 525 nm) of the cell was measured. The relative changes in cell Ca^2+ were plotted as ΔF/F0 on the y-axis, where ΔF is the change in Calcium-4 fluorescence intensity at each time point and F0 is the fluorescence intensity before treatment. The relative response induced by 10 mM salicin was assigned a value of 100.

hTAS2R16 N96T = target: T2, hTAS2R16 N96T (Homo sapiens, UniProt Q9NYV7, N96T); test: Cellular Ca2+ response, cell-based assay in HEK293T cells expressing probenecid-insensitive mutant hTAS2R16 N96T
T2 construct: expressed in transfected cells; host or cells: HEK293T
T2 sequence (Q9NYV7 1-291 N96T): T1 sequence (Q9NYV7 1-291) with N96T
Description: as §1, §2

hTAS2R16 P44T = target: T3, hTAS2R16 P44T (Homo sapiens, UniProt Q9NYV7, P44T); test: Cellular Ca2+ response, cell-based assay in HEK293T cells expressing probenecid-insensitive mutant hTAS2R16 P44T
T3 construct: expressed in transfected cells; host or cells: HEK293T
T3 sequence (Q9NYV7 1-291 P44T): T1 sequence (Q9NYV7 1-291) with P44T
Description: as §1, §2

hTAS2R16 [2] = target: T1, hTAS2R16; test: Ca2+ response of hTAS2R16-expressing HEK293T cells to bitter ligands in absence and presence of umami substances (Figure 1; fura-2 F340/F380 imaging / cell-based assay); details: Glu-Glu 6 mM, Gly-Gly 6 mM; for inhibition of Ca2+ response to arbutin: 5 mM arbutin; for inhibition of Ca2+ response to arbutin / inhibition of Ca2+ response to phenyl β-D-glucopyranoside: MSG 80 mM, IMP 20 mM, L-theanine 80 mM; for reduction of intracellular Ca2+ influx evoked by salicin: 10 mM salicin, MSG 10 and 80 mM, IMP 10 and 20 mM, L-theanine 10 and 80 mM, probenecid 0.1 and 0.3 mM
Description: We first verified if non-peptide umami substances affect the downstream signaling mechanism, such as changes in intracellular Ca^2+ of the human bitter taste receptor. […] The increase in fluorescence intensity ratio (F340/F380) with 10 mM salicin was expressed as 100. […] In addition to salicin, hTAS2R16 also recognizes bitter sugars such as phenyl β-D-glucopyranoside and arbutin, a glycosylated hydroquinone extracted from the bearberry plant in the genus Arctostaphylos.
(A) Chemical structures of tested compounds. Summarized data (B) and representative traces (C) showing responses of HEK293T cells co-expressing hTAS2R16 and Gα16gust44 to 10 mM salicin in the absence and presence of umami substances in a cell-based assay. (D,E) Representative ratiometric images of fura-2-loaded hTAS2R16-expressing cells in response to the other ligands, 5 mM arbutin (D) or phenyl β-D-glucopyranoside (E), in the presence of umami substances. The data were normalized as percentages to the maximal signal obtained with the ligands. The color scale indicates the F340/F380 ratio. Scale bar: 11.04 μm. Data are presented as means ± standard error of the mean (SEM) of at least three separate experiments. * p < 0.05, ** p < 0.01, and *** p < 0.001 vs. the 0 mM sample group by Student’s t-test.
as §2, with “Following treatment, the fluorescence intensity (excitation, 486 nm; emission, 525 nm) of the cell was measured.” left out
Cells were seeded onto 96-well black-wall imaging plates (BD Falcon Labware) for 18–26 h prior to their use in an experiment. […] The cells were rinsed with the buffer, incubated in probenecid or sample for 30 min, and then treated with solution containing the ligand. The Fura-2AM-induced fluorescence intensity (excitation at 340 and 380 nm) was measured at emission wavelength of 510 nm using a computer-controlled filter changer (Lambda DG4; Sutter, San Rafael, CA, USA), an Andor Luca CCD camera (Andor Technology, Belfast, UK), and an inverted fluorescence microscope (IX-71; Olympus, Tokyo, Japan). Images were obtained at 3-s intervals and analyzed using MetaFluor software (Molecular Devices, Sunnyvale, CA, USA).

umami taste [3] = test: Human sensory evaluation of umami taste (literature); type: in vivo; details: from cited thresholds
umami taste [4] = details: cited from earlier work
[5] = IC50 in the presence of 10 mM salicin, Table 2, + IMP 0 mM, means ± SEM
[6] = IC50 of umami substances in the presence of 10 mM salicin, Figure 2B, pretreatment with sample, fixed 10 mM salicin, means ± SEM
[7] = Table 1, pretreatment with sample 10 mM
[8] = Table 1, pretreatment with sample 30 mM
[9] = Table 1, pretreatment with sample 80 mM
[10] = Table 1, pretreatment with sample 100 mM
[11] = Table 3, pretreatment with sample 80 mM

Structure (SMILES) | synergistic effect with IMP on suppression of salicin response (hTAS2R16 [1]) | IC50 (hTAS2R16 [1]; [5]) [mM] | IC50 (hTAS2R16 [1]; [6]) | Maximal Response of salicin (hTAS2R16 [1]; [7]) | Maximal Response of salicin (hTAS2R16 [1]; [8]) | Maximal Response of salicin (hTAS2R16 [1]; [9]) | Maximal Response of salicin (hTAS2R16 [1]; [10]) | Maximal Response of salicin, WT (hTAS2R16 [1]; [11]) | mechanism of antagonism at hTAS2R16 (hTAS2R16 [1]) | Maximal Response of salicin, N96T (hTAS2R16 N96T; [11]) | Maximal Response of salicin, P44T (hTAS2R16 P44T; [11]) | inhibition of Ca2+ response to arbutin (hTAS2R16 [2]) | reduction of intracellular Ca2+ influx evoked by salicin (hTAS2R16 [2]) | inhibition of Ca2+ response to phenyl β-D-glucopyranoside (hTAS2R16 [2]) | detection threshold (umami taste [4]) [mM] | also measured
CCNC(=O)CC[C@H](N)C(=O)O [L-Theanine, γ-glutamylethylamide] | produce similar synergistic effects with IMP | 77.33 ± 0.05 | 62 mM and 61.7 mM | 0.53 ΔF/F0 | 0.50 ΔF/F0 | 0.43 ΔF/F0 | 0.31 ΔF/F0 | 0.43 ΔF/F0 | partial insurmountable antagonists | 0.66 ΔF/F0 | 0.56 ΔF/F0 | significantly inhibited | concentration-dependent reduction | significantly inhibited | 25 | attenuation of salicin response by pretreatment, WT receptor (hTAS2R16 [1]; salicin 0.003–30 mM, probenecid 0.3 mM, L-theanine 80 mM): significantly attenuated; attenuation of salicin response by pretreatment, N96T mutant (hTAS2R16 N96T; salicin 0.003–30 mM, probenecid 0.3 mM, Glu-Glu 6 mM, L-theanine 80 mM): not in cells expressing the two N96T and P44T mutant receptors; attenuation of salicin response by pretreatment, P44T mutant (hTAS2R16 P44T; salicin 0.003–30 mM, probenecid 0.3 mM, MSG 80 mM, L-theanine 80 mM): not in cells expressing the two N96T and P44T mutant receptors; detection threshold, times lower than that of MSG (umami taste [3]; L-theanine vs MSG): roughly 36 times
N[C@@H](CCC(=O)O)C(=O)N[C@@H](CCC(=O)O)C(=O)O [Glu-Glu] (H-Glu-Glu-OH) |  | 7.25 ± 0.02 | 8.62 ± 0.03 mM |  |  |  |  |  |  |  |  |  |  |  |  | 
OCc1ccccc1O[C@@H]1O[C@H](CO)[C@@H](O)[C@H](O)[C@H]1O [Salicin] |  |  |  |  |  |  |  |  |  |  |  |  |  |  |  | Maximal Response of salicin (hTAS2R16 [1]; Table 1, salicin 0–30 mM, sample 0 mM): 0.51 ΔF/F0 and 0.54 ΔF/F0 and 0.56 ΔF/F0; EC50 (hTAS2R16 [1]; Table 1, salicin 0–30 mM, sample 0 mM, means ± SEM, read-out: EC50 of salicin): 1.04 mM (2×) and 920 µM and 890 µM and 900 µM; Maximal Response of salicin, WT (hTAS2R16 [1]; Table 3, sample 0 mM): 0.54 ΔF/F0 and 0.56 ΔF/F0 and 0.51 ΔF/F0; EC50 (hTAS2R16 [1]; Table 3, sample 0 mM, read-out: EC50 of salicin, WT): 0.96 mM and 0.9 mM and 1.04 mM and 1.07 mM; intracellular Ca2+ response induced by ligand, WT receptor (hTAS2R16 [1]; salicin 0.003–30 mM): induced intracellular Ca^2+ response; Maximal Response of salicin, N96T (hTAS2R16 N96T; Table 3, sample 0 mM): 0.66 ΔF/F0 and 0.63 ΔF/F0 and 0.68 ΔF/F0 and 0.61 ΔF/F0; EC50 (hTAS2R16 N96T; Table 3, sample 0 mM, read-out: EC50 of salicin, N96T): 200 µM (2×) and 230 µM and 250 µM and 180 µM; intracellular Ca2+ response induced by ligand, N96T mutant (hTAS2R16 N96T; salicin 0.003–30 mM): induced intracellular Ca^2+ response; Maximal Response of salicin, P44T (hTAS2R16 P44T; Table 3, sample 0 mM): 0.61 ΔF/F0 and 0.59 ΔF/F0 and 0.56 ΔF/F0 and 0.62 ΔF/F0; EC50 (hTAS2R16 P44T; Table 3, sample 0 mM, read-out: EC50 of salicin, P44T): 0.69 mM and 0.75 mM and 0.64 mM and 0.62 mM and 0.68 mM; intracellular Ca2+ response induced by ligand, P44T mutant (hTAS2R16 P44T; salicin 0.003–30 mM): induced intracellular Ca^2+ response
N[C@@H](CCC(=O)O)C(=O)O [MSG, L-glutamic acid monosodium salt hydrate] | produce similar synergistic effects with IMP | 64.67 ± 0.04 | 51 mM and 51.1 mM | 0.55 ΔF/F0 | 0.54 ΔF/F0 | 0.49 ΔF/F0 | 0.47 ΔF/F0 | 0.49 ΔF/F0 | surmountable antagonist | 0.65 ΔF/F0 | 0.57 ΔF/F0 | significantly inhibited | concentration-dependent reduction | significantly inhibited | 0.7 | increase of the EC50 of salicin (hTAS2R16 [1]; sample at highest concentration, 100 mM): 8.5 fold; umami taste threshold, times lower than Glu-Glu (umami taste [3]; MSG vs Glu-Glu): around 10 times; umami taste intensity (relative) (umami taste [4]; enhancing umami taste intensity, MSG = 1.0): 1.0; umami taste threshold (umami taste [4]; human sensory evaluation studies): 30 mg%
